# Key:
# [1] = Sample stability of testosterone in sample pools; type: physicochemical, human; details: testosterone in samples
# Source text: A blood serum sample is collected from a human patient. The serum is first de-proteinated using a 10% formic acid solution or a 1% trichloroacetic acid solution (in methanol). The deproteination also acts to release testosterone from SHBG, albumin, and other binding proteins. In other embodiments proteins can be removed from the blood with other acids such as a solution of 1% trichloroacetic acid in methanol.
# To understand the stability of testosterone in samples, two levels of sample pool were subjected to the following conditions:
# Freeze/Thaw: 1, 2, 3, 4, and 5 cycles.
# Refrigerated (2-8° C.): 0, 1, 2, 4, 7, and 14 days.
# Duplicate runs of samples were run on two separate days.
# [2] = target: T1, Sex hormone-binding globulin (SHBG) (Homo sapiens, UniProt P04278); details: SHBG vs albumin; cited from earlier work
# T1 sequence (P04278 30-402): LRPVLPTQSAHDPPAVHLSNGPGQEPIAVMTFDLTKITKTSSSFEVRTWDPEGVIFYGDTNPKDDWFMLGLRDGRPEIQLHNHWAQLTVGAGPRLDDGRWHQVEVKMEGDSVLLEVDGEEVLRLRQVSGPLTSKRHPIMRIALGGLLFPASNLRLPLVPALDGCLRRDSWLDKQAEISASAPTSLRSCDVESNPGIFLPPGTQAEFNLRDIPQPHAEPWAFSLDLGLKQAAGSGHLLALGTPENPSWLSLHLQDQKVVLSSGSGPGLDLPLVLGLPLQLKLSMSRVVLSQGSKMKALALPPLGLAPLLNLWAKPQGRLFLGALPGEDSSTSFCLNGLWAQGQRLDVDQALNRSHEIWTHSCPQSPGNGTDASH
# [3] = test system: plasma proteins; details: in circulation; cited from earlier work
smiles,measurement,setting,value
"C[C@]12CC[C@H]3[C@@H](CCC4=CC(=O)CC[C@@]43C)[C@@H]1CC[C@@H]2O [Testosterone, 4 androsten 17β-ol-3-one]",Stability,"[1]; Freeze Thaw Cycles, with no effect",Up to 5 with no effect Cycles
same,Stability,[1]; Refrigerated (0°-8° C.),7 days
same,Stability,[1]; Room Temp (18-25° C.),4 days
same,binding capacity of SHBG for testosterone relative to that of albumin,[2],"approximately 30,000 times"
same,testosterone circulating unbound to plasma proteins,[3],Less than 2.5%

# From US8329392B2, “Determination of testosterone by mass spectrometry” (Quest Diagnostics Investments Incorporated, priority 2003, dated 2012)
